SMILES strings stand for the structures. Converted amounts (≈) assume the structure as drawn.

What is called solubility (kinetic) is solubility judged after dilution from a stock solution rather than from solid.

For the data set the following is noted: buffer; pH 7.4; 200.0 µM.
Take `Cc1ccc2c(C)c(C(=O)NCCN3CCOC3=O)oc2c1C`: the solubility (kinetic) was above 47.5 µg/mL. The figure for `Cc1cccc(Nc2nc(Cl)ncc2F)c1C` is 5.3 µg/mL (≈ 21.1 µM); for `O=C(CNC(=O)c1ccccc1F)OC1CCOC1=O` (configuration not stated) it is above 42.2 µg/mL. `CC(=O)c1cccc(-n2c(CCC(=O)O)ccc2-c2ccc(C)cc2)c1` displayed a kinetic solubility above 52.1 µg/mL. The figure for `CC(OC(=O)c1ccco1)C(=O)Nc1ccc(Cl)cn1` (configuration not stated) is above 44.2 µg/mL; for `O=C(Nc1ccc(F)c(Cl)c1)c1ccc2c(c1)OCO2` it is below 0.6 µg/mL; for `CCOCCCNC(=O)/C(C#N)=C/c1ccc([N+](=O)[O-])o1` it is 24 µg/mL (≈ 81.8 µM). To `O=C(CN1C(=O)NC2(CCCC2)C1=O)NCCc1ccc(F)cc1` belongs 44.4 µg/mL (≈ 133 µM); to `O=C(OCC(=O)N1CCOCC1)c1ccccc1Br`, above 49.2 µg/mL; to `CCCCn1c(CCC(=O)O)nc2cc(S(=O)(=O)N3CCCC3)ccc21`, above 56.9 µg/mL. To `Cc1ccc(N(C(C)C(=O)N2CCCC2)S(C)(=O)=O)cc1` (configuration not stated) belongs above 46.6 µg/mL; to `Cc1ccc2ncccc2c1N`, above 23.7 µg/mL. `CCCOc1ccc(CNC(=S)Nc2ccccc2)cc1Cl` returned a kinetic solubility of 1.9 µg/mL (≈ 5.67 µM). To `Cc1ccc(OCCN2C(=O)C(=O)c3cc(C)ccc32)cc1` belongs 4.1 µg/mL (≈ 13.9 µM); to `O=C(c1cn(Cc2ccccc2)c2ccccc12)N1CCCCC1`, 30.6 µg/mL (≈ 96.1 µM); to `O=C1CSC2(N1)C1CC3CC(C1)CC2C3` (configuration not stated), 12.5 µg/mL (≈ 56 µM). With `O=C(/C=C/c1ccc([N+](=O)[O-])s1)N1CCCC1`, the kinetic solubility was above 37.8 µg/mL. The figure for `COC(=O)c1ccc(C2C(C#N)=C(N)Oc3cc(O)ccc32)cc1` (configuration not stated) is 46.3 µg/mL (≈ 144 µM); for `O=C(COC(=O)c1cccnc1Cl)c1ccc(Cl)s1` it is above 47.4 µg/mL. To `COc1ccccc1CNC(=O)C(NC(=O)c1ccccc1)C(C)C` (configuration not stated) belongs 9.9 µg/mL (≈ 29.1 µM); to `Cc1ccn2cc(-c3ccc(Br)cc3)nc2c1`, 1.2 µg/mL (≈ 4.18 µM); to `COc1ccccc1NC1=Nc2cccc3cccc1c23`, 4.9 µg/mL (≈ 17.9 µM).

Compound `COc1ccccc1NC(=O)[C@@H]1CCCN1S(=O)(=O)c1ccc(Cl)cc1` returned a kinetic solubility of 32.4 µg/mL (≈ 82.1 µM). To `COc1cccc2cc(/C(=N/O)c3ccccc3)oc12` belongs below 0.6 µg/mL; to `Cc1ccccc1NC1=NC2(CCCC2)N=C(N)N1`, 28.3 µg/mL (≈ 110 µM); to `CCn1c(NCc2ccc(OC)cc2)nc2ccccc21`, above 42.2 µg/mL. Compound `CCc1c(C)sc(NC(=O)c2cc(C(C)C)on2)c1C#N` returned a solubility (kinetic) of 3.4 µg/mL (≈ 11.2 µM). The figure for `Cc1nc2ccccc2c2ncccc12` is 22.4 µg/mL (≈ 115 µM); for `O=C(c1ccc(Cl)cc1)N1CCOc2ccccc21` it is 40.3 µg/mL (≈ 147 µM).

`Cc1nc(-c2ccc(NC(=O)Cc3ccccc3)cc2)cs1`: the solubility (kinetic) turned out to be 1 µg/mL (≈ 3.24 µM). Regarding `Cc1cc(C)nc(SCC(=O)Nc2ccc3c(c2)OCO3)n1`, the kinetic solubility stood at 45.8 µg/mL (≈ 144 µM).

`O=C(Nc1ccc(F)cc1)OC1CN2CCC1CC2` (configuration not stated) yielded a solubility (kinetic) above 39.6 µg/mL.

The compound `CCc1ccc(NC(=O)Cn2cnc([N+](=O)[O-])c2)cc1` displayed a solubility (kinetic) of 23 µg/mL (≈ 83.9 µM). The figure for `O=C(NCCc1ccc(Cl)cc1)C12CC3CC(CC(O)(C3)C1)C2` is 46.9 µg/mL (≈ 140 µM); for `NC(=O)c1nn(CC(=O)Nc2ccc3c(c2)OCO3)cc1[N+](=O)[O-]` it is above 50 µg/mL. `CCc1nc2ccc(C(=O)NCc3ccccc3)cc2nc1CC` came in with a kinetic solubility of 3.6 µg/mL (≈ 11.3 µM). To `Cc1ccc(C)c(NC(=O)C2CC3CCC2C3)c1` (configuration not stated) belongs 10.6 µg/mL (≈ 43.6 µM); to `COc1cccc(N2CCN(CC(=O)NCc3ccccc3)CC2)c1`, 50.3 µg/mL (≈ 148 µM). The figure for `O=S(=O)(Nc1cccc(S(=O)(=O)N2CCCC2)c1)c1ccc(Cl)cc1` is above 60.1 µg/mL; for `COc1cc(OC)c(C(=O)Nc2ccncc2)cc1OC` it is 42.6 µg/mL (≈ 148 µM); for `Cc1cc(C)nc(SC/C=C/c2ccccc2)n1.Cl` it is 5.4 µg/mL. To `Cc1nc(N2CCCCCC2)c2ccccc2n1.Cl` belongs above 41.7 µg/mL; to `O=C(C(Cl)c1ccccc1)N1CCOCC1` (configuration not stated), 33.5 µg/mL (≈ 140 µM). `CSCC(=O)Nc1ccc(F)c(Cl)c1`: the kinetic solubility was above 35.1 µg/mL. Consider `CC1=C(C)CC(C(=O)Nc2nc(C)cs2)C(C(=O)O)C1` (configuration not stated), for which the kinetic solubility is above 44.2 µg/mL.

`Cc1cc(S(=O)(=O)NCCCn2ccnc2)c(C)cc1Cl` displayed a solubility (kinetic) above 49.2 µg/mL. To `CS(=O)(=O)N1CCCC(C(=O)c2cccc(Cl)c2)C1` (configuration not stated) belongs above 45.3 µg/mL.

In turn, `Cn1c(SCc2cccc(Br)c2)nc2ccccc2c1=O` registered a kinetic solubility below 0.4 µg/mL. As to `Cn1cnc(S(=O)(=O)Nc2cc(-c3ccc(Cl)cc3)nn2C)c1`, the kinetic solubility was above 52.8 µg/mL. To `COc1ccc(C(=O)NCC2(c3ccccc3)CCCC2)c(OC)c1` belongs 3.8 µg/mL (≈ 11.2 µM); to `Cl.OC(CNC1CCCC1)COc1ccc(F)cc1` (configuration not stated), 36.6 µg/mL; to `O=C(NC(=O)c1ccccc1)Nc1ccccc1`, 1.2 µg/mL (≈ 4.99 µM).

Source of the values: PubChem BioAssay AID1996.
